Consider two compounds from US9499787B2, “Method for differentiating stem cells into neurons” (Dongguk University Industry-Academic Cooperation Foundation, priority 2012, dated 2016).

Series [1] relates to Mesenchymal stem cells. In words: Western blot analysis of neuron-associated proteins (NSE, Nestin, NF-L). Conditions: 5 days after differentiation, compared to the control. The class given is cell-based, human. The protocol: (§1) Mesenchymal stem cells were seeded in low glucose-Dulbecco's Modified Eagle's Medium (LG-DMEM) containing 10% fetal bovine serum (FBS) at a density of 5×10^3 cell/cm2. 24 hours after seeding, the medium was replaced with fresh DMEM/F-12 (1:1 mixed medium) supplemented with 1 uM hydrocortisone, […], 1% bovine serum albumin, and 0, 1, 2, 3, 4, 5 or 8 mM lipoic acid to induce differentiation into neural cells. Moreover, 1 uM forskolin was further added to promote differentiation into neural cells.
The neural cells cultured in Example 3 were washed with phosphate-buffered saline (PBS) and lysed with radioimmunoprecipitation (RIPA) buffer containing protease inhibitor. The total protein was measured using a BCA® Protein Assay kit (Pierce, USA), and 10 ug protein was electrophoresed on a 10% polyacrylamide gel and transferred to a nitrocellulose membrane. Then, the membrane was blocked with Tris-buffered saline (TBS) containing 5% skim milk and 0.5% Tween® 20 at room temperature for 30 minutes and reacted with antibodies such as anti-NSE, anti-Nestin, Anti-NF-L (Cell Signaling, USA), and β-actin (Sigma, USA) at 4° C. for 16 hours. Subsequently, the membrane was reacted with an anti-mouse or anti-rabbit secondary antibody at room temperature for 1 hour, exposed to ECL™ (Pierce™ Biotechnology, USA), and then imaged using a ChemiDoc™ XRS+Imaging System (BioRad®, USA).

Series [2] relates to Mesenchymal stem cells. In words: RT-PCR of neuron-related genes (MAP2, DCX, Tau, NeuroD1, NSE, Nestin, NF-L). It is filed as cell-based, human. The following applies: 5 days after differentiation, compared to the control. The protocol: as §1
The total RNA was recovered and isolated using TRIzol® solution (Invitrogen, USA), and then 1 ug RNA was used to synthesize cDNA using an RT-PCR kit (Clontech, USA). The genes to be analyzed were MAP2, DCX, Tau, NeuroD1, NSE, Nestin and NF-L, and the primers used for the analysis are shown in the following Table 1.

Series [3] has as its system Mesenchymal stem cells. In words: Cell viability measured by MTT. The class given is cell-based, human. The protocol: The cell viability was measured by MTT (3-(4,5-dimethylthiazol-2-yl)-2,5-diphenyltetrazolium bromide). Specifically, MTT solution (0.0333 g/ml DMEM) was added to the neural cells cultured in Example 3 for reaction at 37° C. for 90 minutes and then removed. Then, dimethyl sulfoxide (DMSO) was added and left to stand for 10 minutes, and the resulting solution was used to measure the absorbance at 570 nm using a spectrum analyzer. Mesenchymal stem cells were seeded in low glucose-Dulbecco's Modified Eagle's Medium (LG-DMEM) containing 10% fetal bovine serum (FBS) at a density of 5×10^3 cell/cm2. 24 hours after seeding, the medium was replaced with fresh DMEM/F-12 (1:1 mixed medium) supplemented with 1 ug hydrocortisone, […], 1% bovine serum albumin, and 0, 1, 2, 3, 4, 5 or 8 mM lipoic acid to induce differentiation into neural cells. Moreover, 1 ug forskolin or […] (NGF) might be further added to enhance differentiation into neural cells. […]

Series [4] has as its system Mesenchymal stem cells. In words: Differentiation into neural cells, cellular morphology under a microscope. The class given is cell-based, human. Conditions: for maintenance of the morphology of neural cells: after induction of differentiation. The protocol: Mesenchymal stem cells obtained from adipose tissue used in this Example were StemPro® Adipose-derived Stem Cells (Product No. R7788-110) purchased from Invitrogen. Frozen ampoules were thawed, and cells were washed with DMEM, centrifuged at 800 RPM for 5 minutes, and cultured in DMEM containing low glucose (1000 mg/L) and supplemented with 10% fetal bovine serum (FBS).
as §1

Series [5] relates to Mesenchymal stem cells. In words: Immunofluorescence staining of neuron-associated proteins. Conditions: all cases treated with lipoic acid, 5 days after differentiation, compared to the control. It is filed as cell-based, human. The protocol:
as §1
The neural cells cultured in Example 3 were fixed on glass coverslips with 4% paraformaldehyde for 10 minutes, blocked with PBS containing 1.5% bovine serum albumin (BSA), and then permeabilized with PBS containing 0.5% Triton™ X-100. Then, the cells were reacted with primary antibodies such as anti-NF-L, anti-MAP2, anti-GFAP, anti-NeuroD1 (Cell Signaling, USA), and anti-tau (Biosource, USA) at 4° C. for 16 hours. Then, the cells were washed with PBS for 10 minutes and reacted with species-specific secondary antibodies such as anti-rabbit IgG-Alexa Fluor® 488 or anti-mouse IgG-Alexa Fluor® 555 conjugate at room temperature for 1 hour. Then, the stained cells were mounted with Vectashield® mounting medium containing DAPI and contrast stained. The cells were examined using a Confocal Laser Scanning Microscope (LSM 510-meta, Germany), and the results are shown in FIG. 9.

In series [6] the test system is human cells. Conditions: serum-free culture of human cells; cited from earlier work.

Consider `O=C(O)CCCC[C@@H]1CCSS1` (racemic) [lipoic acid], for which the “expression of neuron-associated proteins (Western blot)” value is “further increased” in series [1] (4 mM lipoic acid) and “increased” in series [1] (8 mM lipoic acid). Also, the “expression of neuron-related genes (mRNAs)” value in series [2] (4 mM lipoic acid) was “further increased”; in series [2] (8 mM lipoic acid) it was “increased”. In addition, the cell viability (as a rule, the share of living cells, or the viability signal relative to a control) in series [3] (human, 4 mM) came out at 61.4%; in series [3] (human, 8 mM), 51.4%. Further, in series [4], the “maintenance of the morphology of neural cells” value is recorded as “well maintained up to 5 days”. Besides, the “morphological changes of neural cells” value in series [4] (lipoic acid at 1 mM, 5 days, with hydrocortisone, insulin, 1% bovine serum albumin) was “no change”. For the same compound, in series [4] (lipoic acid at more than 2 mM, 5 days, with 1 uM hydrocortisone, […], 1% bovine serum albumin), the “morphological changes of neural cells (dendrite formation)” value is listed as “dendrites were well formed”. For the same compound, in series [5], the “expression of neuron-associated proteins (immunofluorescence)” value is recorded as “increased”. Further, the “concentration known to cause cell apoptosis” value in series [6] was at least 2000 µM.

On to `COc1ccc(O)c(C(C)(C)C)c1` [butylated hydroxyanisole], for which, in series [3] (5 days, 200 ug butylated hydroxyanisole (control)), the cell viability entry is “too low”. The “maintenance of the morphology of neural cells” value in series [4] is recorded as “destroyed after 24 hours”.
